pIC50: −log10 of the molar value.
System: rhIFNγ stimulated STAT-3 phosphorylation in the A549 human epithelial cell line
Experiment: A549 Cell Assay: Inhibition of pSTAT3
Type: cell-based
Conditions: A549 cells
Experimental: A549 Cell Assay: Inhibition of pSTAT3
An assay measuring the efficacy of JAK inhibitors on the functional response of recombinant human interferon γ (rhIFNγ) stimulated STAT-3 phosphorylation in the A549 human epithelial cell line.
A549 cells (ATCC #CCL-185), were plated at 30,000 cells/well in 96 well flat bottomed tissue culture plates (BD#353072) in 200 μL of growth medium (DMEM, Pfizer media prep, with 10% Fetal Bovine Serum, Sigma #F4135, 2 mM L-Glutamine, Pfizer media prep, 100 U/mL penicillin, Pfizer media prep, and 200 μg/ml streptomycin, Pfizer media prep), and cultured at 37° C., 5% CO2 incubator for 18 hours. Growth medium was removed by vacuum aspiration (V&P Scientific #vp187 bp-60), and 90 μL of pre-warmed assay medium (DMEM with 0.2% BSA, Miltenyi #130-091-376) was added to each well and incubated for 15 minutes at 37° C. 10 μL of vehicle control or test compound (final concentration range of 0.3 nM to 10 μM with 0.1% DMSO) was added to the cells. Plates were incubated at 37° C. for 1 hour. After compound incubation, 10 μL of 220 ng/mL recombinant human IFNγ (R&D Systems #285-IF, final rhIFNγ concentration of 20 ng/mL) was added to the cells and plates were incubated for 30 minutes at 37° C. Wells containing A549 cells, medium with 0.1% DMSO and no rhIFNγ were used as background controls. After rhIFNγ stimulation, media was aspirated from each well and 35 μL/well of iced-cold MSD lysis buffer containing protease and phosphatase inhibitors from Phospho-STAT3 Tyr705 assay kit (Meso-Scale Discovery #K150DID) was added to each well. Plates were incubated at 4° C. with shaking for 30 minutes. Cell lysates were assayed following the MSD Phospho-STAT3 Tyr705 assay kit protocol to detect pSTAT3.
Data were collected and transformed into percent inhibition and calculated using the following formula: […]

| pIC50 | SMILES |
| --- | --- |
| 6.90 | CNC(=O)c1n[nH]c2nc(-c3cc(F)c(O)cc3CC(F)(F)F)nc(NCc3ccccc3N(C)S(C)(=O)=O)c12 [Example 94] |

Same assay, conditions: Homo sapiens; A549 cells

| SMILES | pIC50 |
| --- | --- |
| CN(c1ncc(Cl)cc1CNc1nc(-c2cc(F)c(O)cc2CC(F)(F)F)cc2[nH]nc(C(N)=O)c12)S(C)(=O)=O [Example 72, 4-[({5-chloro-2-[methyl(methylsulfonyl)amino]pyridin-3-yl}methyl)amino]-6-[5-fluoro-4-hydroxy-2-(2,2,2-trifluoroethyl)phenyl]-1H-pyrazolo[4,3-c]pyridine-3-carboxamide] | 7.03 |
| CCc1cc(O)c(F)cc1-c1cc2[nH]nc(C(=O)NC)c2c(NCc2ccccc2N(C)S(N)(=O)=O)n1 [Example 73, 6-(2-ethyl-5-fluoro-4-hydroxyphenyl)-N-methyl-4-({2-[methyl(sulfamoyl)amino]benzyl}amino)-1H-pyrazolo[4,3-c]pyridine-3-carboxamide] | 7.45 |
| CN(c1ncc(F)cc1CNc1nc(-c2cc(F)c(O)cc2CC(F)(F)F)cc2[nH]nc(C(N)=O)c12)S(C)(=O)=O [Example 78, 6-[5-Fluoro-4-hydroxy-2-(2,2,2-trifluoroethyl)phenyl]-4-[({5-fluoro-2-[methyl(methyl-sulfonyl)amino]pyridin-3-yl}methyl)amino]-1H-pyrazolo[4,3-c]pyridine-3-carboxamide] | 7.57 |
| CCN(c1ncc(F)cc1CNc1nc(-c2cc(F)c(O)cc2CC(F)(F)F)cc2[nH]nc(C(N)=O)c12)S(C)(=O)=O [Example 79, 4-[({2-[ethyl(methylsulfonyl)amino]-5-fluoropyridin-3-yl}methyl)amino]-6-[5-fluoro-4-hydroxy-2-(2,2,2-trifluoroethyl)phenyl]-1H-pyrazolo[4,3-c]pyridine-3-carboxamide] | 7.51 |
| CCN(c1nccnc1CNc1nc(-c2cc(F)c(O)cc2CC(F)(F)F)cc2[nH]nc(C(N)=O)c12)S(C)(=O)=O [Example 80, 4-[({3-[ethyl(methylsulfonyl)amino]pyrazin-2-yl}methyl)amino]-6-[5-fluoro-4-hydroxy-2-(2,2,2-trifluoroethyl)phenyl]-1H-pyrazolo[4,3-c]pyridine-3-carboxamide] | 6.71 |
| CCN(c1ccccc1CNc1nc(-c2cc(F)c(O)cc2CC(F)(F)F)cc2[nH]nc(C(N)=O)c12)S(=O)(=O)CC [Example 82, 4-((2-(N-ethylethylsulfonamido)benzyl)amino)-6-(5-fluoro-4-hydroxy-2-(2,2,2-trifluoroethyl)phenyl)-1H-pyrazolo[4,3-c]pyridine-3-carboxamide] | 7.68 |
| CCN(c1ccc(F)cc1CNc1nc(-c2cc(F)c(O)cc2CC(F)(F)F)cc2[nH]nc(C(N)=O)c12)S(C)(=O)=O [Example 83, 4-((2-(N-ethylmethylsulfonamido)-5-fluorobenzyl)amino)-6-(5-fluoro-4-hydroxy-2-(2,2,2-trifluoroethyl)phenyl)-1H-pyrazolo[4,3-c]pyridine-3-carboxamide] | 7.52 |
| CCN(c1ccc(Cl)cc1CNc1nc(-c2cc(F)c(O)cc2CC(F)(F)F)cc2[nH]nc(C(N)=O)c12)S(C)(=O)=O [Example 84, 4-((5-chloro-2-(N-ethylmethylsulfonamido)benzyl)amino)-6-(5-fluoro-4-hydroxy-2-(2,2,2-trifluoroethyl)phenyl)-1H-pyrazolo[4,3-c]pyridine-3-carboxamide] | 7.48 |
| CCS(=O)(=O)N(C)c1ccccc1CNc1nc(-c2cc(F)c(O)cc2CC(F)(F)F)cc2[nH]nc(C(N)=O)c12 [Example 85, 6-(5-fluoro-4-hydroxy-2-(2,2,2-trifluoroethyl)phenyl)-4-((2-(N-methylethylsulfonamido)benzyl)amino)-1H-pyrazolo[4,3-c]pyridine-3-carboxamide] | 7.89 |
| CCN(c1ncc(C)cc1CNc1nc(-c2cc(F)c(O)cc2CC(F)(F)F)cc2[nH]nc(C(N)=O)c12)S(C)(=O)=O [Example 87, 4-[({2-[ethyl(methylsulfonyl)amino]-5-methylpyridin-3-yl}methyl)amino]-6-[5-fluoro-4-hydroxy-2-(2,2,2-trifluoroethyl)phenyl]-1H-pyrazolo[4,3-c]pyridine-3-carboxamide] | 6.67 |

The next lines start with the values.

| pIC50 | SMILES |
| --- | --- |
| 7.50 | CN(c1ccc(F)cc1CNc1nc(-c2cc(F)c(O)cc2CC(F)(F)F)cc2[nH]nc(C(N)=O)c12)S(C)(=O)=O [Example 88, 6-[5-fluoro-4-hydroxy-2-(2,2,2-trifluoroethyl)phenyl]-4-({5-fluoro-2-[methyl(methylsulfonyl)amino]benzyl}amino)-1H-pyrazolo[4,3-c]pyridine-3-carboxamide] |
| 7.33 | CN(c1ccc(Cl)cc1CNc1nc(-c2cc(F)c(O)cc2CC(F)(F)F)cc2[nH]nc(C(N)=O)c12)S(C)(=O)=O [Example 89, 4-({5-chloro-2-[methyl(methylsulfonyl)amino]benzyl}amino)-6-[5-fluoro-4-hydroxy-2-(2,2,2-trifluoroethyl)phenyl]-1H-pyrazolo[4,3-c]pyridine-3-carboxamide] |
| 7.52 | CCN(c1ccccc1CNc1nc(-c2cc(F)c(O)cc2CC(F)(F)F)cc2[nH]nc(C(N)=O)c12)S(C)(=O)=O [Example 90, 4-({2-[ethyl(methylsulfonyl)amino]benzyl}amino)-6-[5-fluoro-4-hydroxy-2-(2,2,2-trifluoroethyl)phenyl]-1H-pyrazolo[4,3-c]pyridine-3-carboxamide] |
| 7.58 | CCN(c1ccc(C)cc1CNc1nc(-c2cc(F)c(O)cc2CC(F)(F)F)cc2[nH]nc(C(N)=O)c12)S(C)(=O)=O [Example 91, 4-({2-[ethyl(methylsulfonyl)amino]-5-methylbenzyl}amino)-6-[5-fluoro-4-hydroxy-2-(2,2,2-trifluoroethyl)phenyl]-1H-pyrazolo[4,3-c]pyridine-3-carboxamide] |
| 7.22 | CCc1cc(O)c(F)cc1-c1nc(NCc2ccccc2N(C)S(=O)(=O)c2ccccc2)c2c(C(N)=O)n[nH]c2n1 [Example 95, 6-(2-Ethyl-5-fluoro-4-hydroxyphenyl)-4-((2-(N-methylphenylsulfonamido)benzyl)amino)-1H-pyrazolo[3,4-d]pyrimidine-3-carboxamide] |
| 5.54 | CN(c1ccccc1CNc1nc(-c2cc(F)c(O)cc2CC(F)(F)F)nc2[nH]nc(C(N)=O)c12)S(=O)(=O)c1ccccc1 [Example 96, 6-(5-Fluoro-4-hydroxy-2-(2,2,2-trifluoroethyl)phenyl)-4-((2-(N-methylphenylsulfonamido)benzyl)amino)-1H-pyrazolo[3,4-d]pyrimidine-3-carboxamide] |
| 5.61 | CN(c1ccc(O)cc1CNc1nc(-c2cc(F)c(O)cc2CC(F)(F)F)nc2[nH]nc(C(=O)Nc3ccc(NCCO)nc3)c12)S(C)(=O)=O [Example 99, 6-(5-Fluoro-4-hydroxy-2-(2,2,2-trifluoroethyl)phenyl)-4-((5-hydroxy-2-(N-methylmethylsulfonamido)benzyl)amino)-N-(6-((2-hydroxyethyl)amino)pyridin-3-yl)-1H-pyrazolo[3,4-d]pyrimidine-3-carboxamide] |
| < 5.00 | CS(=O)(=O)N(CCO)c1ccccc1CNc1nc(-c2cc(F)c(O)cc2CC(F)(F)F)nc2[nH]nc(C(N)=O)c12 [Example 101, 6-(5-fluoro-4-hydroxy-2-(2,2,2-trifluoroethyl)phenyl)-4-((2-(N-(2-hydroxyethyl)methyl-sulfonamido)benzyl)amino)-1H-pyrazolo[3,4-d]pyrimidine-3-carboxamide] |
| 6.63 | CCN(c1ccccc1CNc1nc(-c2cc(F)c(O)cc2CC(F)(F)F)nc2[nH]nc(C(=O)NC)c12)S(C)(=O)=O [Example 103, 4-((2-(N-ethylmethylsulfonamido)benzyl)amino)-6-(5-fluoro-4-hydroxy-2-(2,2,2-trifluoroethyl)-phenyl)-N-methyl-1H-pyrazolo[3,4-d]pyrimidine-3-carboxamide] |
| 6.53 | CNC(=O)c1n[nH]c2nc(-c3cc(F)c(O)cc3CC(F)(F)F)nc(NCc3cc(F)ccc3N(C)S(C)(=O)=O)c12 [Example 104, 4-((5-fluoro-2-(N-methylmethylsulfonamido)benzyl)amino)-6-(5-fluoro-4-hydroxy-2-(2,2,2-trifluoroethyl)phenyl)-N-methyl-1H-pyrazolo[3,4-d]pyrimidine-3-carboxamide] |
| 5.60 | CNC(=O)c1n[nH]c2nc(-c3cc(F)c(O)cc3CC(F)(F)F)nc(NCc3cc(O)ccc3N(C)S(=O)(=O)c3ccccc3)c12 [Example 106, 4-((2-(N-Methylphenylsulfonamido)-5-hydroxybenzyl)amino)-6-(5-fluoro-4-hydroxy-2-(2,2,2-trifluoroethyl)phenyl)-N-methyl-1H-pyrazolo[3,4-d]pyrimidine-3-carboxamide] |
| 6.05 | CCN(c1ccc(O)cc1CNc1nc(-c2cc(F)c(O)cc2CC(F)(F)F)nc2[nH]nc(C(N)=O)c12)S(=O)(=O)c1ccccc1 [Example 107, 4-((2-(N-ethylphenylsulfonamido)-5-hydroxybenzyl)amino)-6-(5-fluoro-4-hydroxy-2-(2,2,2-trifluoroethyl)phenyl)-1H-pyrazolo[3,4-d]pyrimidine-3-carboxamide] |
